Reference: publication PMC3566758 (Beilstein Journal of Organic Chemistry, 2013)
Converted amounts (≈) assume the structure as drawn. Read-outs that look alike come from different tables or passages of the source.

Experiments:
measles virus (MeV) = assay: measles virus cytopathic effect (CPE) reduction assay; type: cell-based; details: Measles morbillivirus, read-out: MeV (CPE) 50% inhibitory concentration
Method: A small set of compounds was synthesized based on variations of 1 by replacing the p-methoxyphenyl group with other substituted phenyl rings or heterocyclic rings. The compounds were initially assayed in two screening assays: (1) a measles virus cytopathic effect (CPE) reduction assay and (2) a solubility assay based on laser nephelometry. Unfortunately, compounds with the highest aqueous solubilities (>100 µg/mL) had the poorest antiviral activity (i.e., 18a and 18e, Table 1).

[1] = design: method as in earlier work; details: ref 15 (Pharmacokinetics Study of JMN3-003. Unpublished results); cited from earlier work
[2] = tested on: measles virus (MeV) recombinant; assay: microbe, parasite or virus in culture; type: cell-based; details: for EC50: Measles morbillivirus
[3] = microbe, parasite or virus in culture; type: cell-based; details: Influenza A virus, WSN, read-out: EC50 WSN
MeV = assay: virus yield reduction assay; type: cell-based; details: Measles morbillivirus, read-out: MeV 50% inhibitory concentration, virus yield reduction assay
[4] = pH 3, aqueous buffer, kinetic from dmso stock
[5] = pH 5, aqueous buffer, kinetic from dmso stock
[6] = pH 7.4, aqueous buffer, kinetic from dmso stock
[7] = averages of four experiments, highest concentration assessed 75 μM

Compound	CC50 (in vitro) [µM]	solubility (physchem; [6]) [mg/mL]	IC50 (measles virus (MeV); [7]) [µM]	EC50 ([2]; read-out: EC50 MeV) [µM]	EC50 [3] [µM]	further results
COc1ccc(-n2c(SC(C)C(=O)Nc3ccc(C)cc3Cl)nc3ccccc32)cc1 (stereo not shown) [Compound 1]	> 50	< 0.015	3.1	0.031	0.013	solubility (physchem): < 0.015 mg/mL; solubility (physchem; [4]): < 0.015 mg/mL; solubility (physchem; [5]): < 0.015 mg/mL; oral bioavailability [1]: low
Cc1ccc(NC(=O)[C@H](C)Sc2nc3ccccc3n2-c2cccc(CCN3CCOCC3)c2)c(Cl)c1 [(S)-14b]	> 50	–	–	0.011	0.001	EC50 ([2]; WSN, read-out: EC50 values against the two viruses): 0.001 to 0.011 µM
Cc1ccc(NC(=O)[C@@H](C)Sc2nc3ccccc3n2-c2ccccc2CN2CCN(C)CC2)c(Cl)c1 [(R)-14a]	–	–	–	0.47	0.12	–
COc1ccc(-n2c(S[C@@H](C)C(=O)Nc3ccc(C)cc3Cl)nc3ccccc32)cc1 [(S)-1]	> 50	–	–	0.037	0.005	–
Cc1ccc(NC(=O)C(C)Sc2nc3ccccc3n2CCN2CCOCC2)c(Cl)c1 (stereo not shown) [Compound 18d]	–	0.022 (≈ 47.9 µM)	4.9	–	–	–
Cc1ccc(NC(=O)[C@H](C)Sc2nc3ccccc3n2-c2ccc(CCN3CCOCC3)cc2)c(Cl)c1 [(S)-14c]	–	–	–	0.18	0.036	–
Cc1ccc(NC(=O)[C@@H](C)Sc2nc3ccccc3n2-c2ccc(CCN3CCOCC3)cc2)c(Cl)c1 [(R)-14c]	–	–	–	0.53	0.12	–
Cc1ccc(NC(=O)C(C)Sc2nc3ccccc3n2N2CCN(C)CC2)c(Cl)c1 (stereo not shown) [Compound 18c]	–	< 0.015	> 75	–	–	–
Cc1ccc(NC(=O)C(C)Sc2nc3ccccc3n2CCN2CCNCC2)c(Cl)c1 (stereo not shown) [Compound 18e]	–	0.12 (≈ 262 µM)	> 75	–	–	solubility (physchem; pH 7.4): > 0.1 mg/mL
Cc1ccc(NC(=O)[C@@H](C)Sc2nc3ccccc3n2-c2cccc(CCN3CCOCC3)c2)c(Cl)c1 [(R)-14b]	> 50	–	–	0.21	0.11	–
Cc1ccc(NC(=O)C(C)Sc2nc3ccccc3n2-c2cccc(CN3CCOCC3)c2)c(Cl)c1 (stereo not shown) [Compound 18f]	–	< 0.015	0.27	–	–	–
Cc1ccc(NC(=O)C(C)Sc2nc3ccccc3n2C2CCCN(C)C2)c(Cl)c1 (stereo not shown) [Compound 18b]	–	0.019 (≈ 42.9 µM)	–	–	–	IC50 (measles virus (MeV)): > 0.29 µM
Cc1ccc(NC(=O)C(C)Sc2nc3ccccc3n2-c2cccc(CCn3ncnn3)c2)c(Cl)c1 (stereo not shown) [Compound 18g]	–	< 0.015	–	–	–	IC50 (MeV): 0.05 µM
Cc1ccc(NC(=O)[C@H](C)Sc2nc3ccccc3n2-c2ccccc2CN2CCN(C)CC2)c(Cl)c1 [(S)-14a]	25	–	–	0.068	0.004	–
Cc1ccc(NC(=O)C(C)Sc2nc3ccccc3n2-c2ccccc2CN2CCN(C)CC2)c(Cl)c1 (stereo not shown) [Compound 14a]	–	0.02 (≈ 37.4 µM)	0.179	0.041	0.008	solubility (physchem; [4]): > 0.3 mg/mL; solubility (physchem; [5]): 0.092 mg/mL (≈ 172 µM)
Cc1ccc(NC(=O)C(C)Sc2nc3ccccc3n2-c2cccc(CCN3CCOCC3)c2)c(Cl)c1 (stereo not shown) [Compound 14b]	> 50	0.015 (≈ 28 µM)	0.2	0.013	0.0003	solubility (physchem; [4]): 0.158 mg/mL (≈ 295 µM); solubility (physchem; [5]): 0.033 mg/mL (≈ 61.7 µM)
Cc1ccc(NC(=O)C(C)Sc2nc3ccccc3n2-c2ccc(CCN3CCOCC3)cc2)c(Cl)c1 (stereo not shown) [Compound 14c]	–	0.025 (≈ 46.7 µM)	0.6	0.11	0.043	solubility (physchem; [4]): 0.212 mg/mL (≈ 396 µM); solubility (physchem; [5]): 0.051 mg/mL (≈ 95.3 µM); ΔEC50, (S)-enantiomer versus (R)-enantiomer ([2]; MeV and WSN EC50 comparisons): < 3 fold
COc1ccc(-n2c(S[C@H](C)C(=O)Nc3ccc(C)cc3Cl)nc3ccccc32)cc1 [(R)-1]	> 50	–	–	0.88	0.16	–
